We go through six molecules from patent publication US9867376B2, “Herbicidal compositions comprising N-tetrazol-5-yl)- or N-(triazol-5-yl)arylcarboxamides” (priority 2012, dated 2018).

Common to all, as to format: in vivo
One assay relates to Brachiaria platyphylla. The assay can be described thus: Greenhouse trial, post-emergence, visual herbicidal effect. Particulars: alone. Put shortly:
(§1)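 Weeds were sown in sandy loam soil in pots, germinated under optimum conditions and sprayed post-emergence at 300 l/ha with herbicides alone or combined. Plants grew in a greenhouse; damage was scored visually against untreated controls (0% no effect, 100% complete kill), with Colby expected values for combinations.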

The test system of a further assay is Xanthium strumarium. Described as above. Particulars: Table 5-56, greenhouse, alone, 1 g of a.i./ha. Put shortly: as §1
Another assay has as its system Alopecurus myosuroides. The experiment in a line: Field trial, post-emergence, visual scoring. Particulars: Table 5-60, field, alone.
The test system of assay [1] is Centaurea cyanis. The assay can be described thus: Field trial, post-emergence, visual scoring. Particulars: Table 5-59, field, alone.
The next assay deals with Euphorbia heterophylla. The experiment in a line: Field trial, post-emergence, visual scoring. Particulars: Table 5-63, field, alone, 25 g of a.i./ha.
The subject of a further assay is Galium aparine. The experiment in a line: Field trial, post-emergence, visual scoring. As to conditions: alone.
The next assay concerns Lolium multiflorum. The experiment in a line: Field trial, post-emergence, visual scoring. Particulars: Table 5-58, field, alone, 25 g of a.i./ha.
A further assay relates to Papaver rhoeas. The experiment in a line: Greenhouse trial, post-emergence, visual herbicidal effect. Particulars: alone. Put shortly:
as §1

The next assay has as its system Polygonum convolvulus. The description is as above. As to conditions: alone. In outline: as §1
The subject of assay [2] is Veronica hederifolia. Described as above. As to conditions: Table 5-89, greenhouse, alone. Put shortly:
as §1

The next assay deals with Cassia obtusifolia. The assay can be described thus: Field trial, post-emergence, visual scoring. Particulars: Table 5-25, field, alone, 210 g of a.i./ha.
The next assay has as its system Polygunum convolvulus. The experiment in a line: Field trial, post-emergence, visual scoring. As to conditions: Table 5-53, field, alone, 210 g of a.i./ha.
Assay [3] relates to Veronica hederifolia. The experiment in a line: Field trial, post-emergence, visual scoring. As to conditions: alone, 210 g of a.i./ha.
Assay [4] deals with broad-leaved weeds/weed grasses. The assay can be described thus: Field trial, post-emergence, visual scoring (species not listed above). As to conditions: dosage 210 g of a.i./ha. The protocol:
The tests were conducted outdoors (plot trials, 10 m^2 per plot, 2 repetitions, spray application with 200-300 liters of water per hectare). Crops and broad-leaved weeds/weed grasses were sown under customary field conditions. In addition, a natural weed flora also appeared. Application was by the post-emergence method. The application rates of the herbicidally active compounds applied on their own or in combinations are likewise shown in the tables below. Evaluations were by visual scoring (using a 0-100% scale) after application by comparison of treated and untreated test variants.
The abbreviations denote: • a.i.=active ingredient • E^C=expected value according to Colby (E^C=A+B−A×B100) • Δ=difference (%) of the measured value to the expected value (%) (measured value minus expected value)
Evaluation: • measured value E is greater than E^C:→synergism (+Δ) • measured value E equals E^C:→additive effect • measured value E is smaller than E^C:→antagonism (−Δ)

A further assay relates to Avena fatua. The experiment in a line: Greenhouse trial, post-emergence, visual herbicidal effect. As to conditions: alone. In outline:
as §1

Assay [5] deals with Centaurea cyanis. The assay is described as above. As to conditions: alone. Put shortly:
as §1

The next assay concerns Phalaris minor. Described as above. Particulars: Table 5-03, greenhouse, alone, 25 g of a.i./ha. Put shortly: as §1
Another assay has as its system Viola tricolor. The assay is described as above. Particulars: alone. In outline:
as §1

For the molecule `COCc1c(S(C)(=O)=O)ccc(C(=O)Nc2nnnn2C)c1Cl` [A1-60], the “Activity [%] against Brachiaria platyphylla” value with Brachiaria platyphylla (Table 5-55, greenhouse, 1 g of a.i./ha) was 0%; with Brachiaria platyphylla (Table 5-57, greenhouse, 2 g of a.i./ha), 40%. In addition, in the assay on Xanthium strumarium, the “Activity [%] against Xanthium strumarium” value is on record as 25%. For the same molecule, the “Activity [%] against Alopecurus myosuroides” value with Alopecurus myosuroides (25 g of a.i./ha) is recorded as 15%. In addition, the “Activity [%] against Centaurea cyanis” value in the assay on Centaurea cyanis [1] (25 g of a.i./ha) was 45%. Besides, the “Activity [%] against Euphorbia heterophylla” value in the assay with Euphorbia heterophylla is 30%. Moreover, the “Activity [%] against Galium aparine” value was found to be 30% in the assay on Galium aparine (Table 5-61, field, 25 g of a.i./ha) and 73% in the assay on Galium aparine (Table 5-62, field, 25 g of a.i./ha). In addition, in the assay with Lolium multiflorum, the “Activity [%] against Lolium multiflorum” value was 15%.
As for `Cn1nnnc1NC(=O)c1ccc(S(C)(=O)=O)c(OCC2CC2)c1Cl` [A1-74], the “Activity [%] against Papaver rhoeas” value in the assay on Papaver rhoeas (Table 5-86, greenhouse, 3 g of a.i./ha) was found to be 30%; in the assay on Papaver rhoeas (Table 5-87, greenhouse, 3 g of a.i./ha), 40%. For the same molecule, in the assay on Polygonum convolvulus (Table 5-88, greenhouse, 3 g of a.i./ha), the “Activity [%] against Polygonum convolvulus” value was 0%. Also, in the assay on Veronica hederifolia [2] (3 g of a.i./ha), the “Activity [%] against Veronica hederifolia” value was determined as 40%.
As for `N#Cc1cc(Br)c(O)c(Br)c1` [bromoxynil], the “Activity [%] against Cassia obtusifolia” value in the assay with Cassia obtusifolia is 10%. Besides, the “Activity [%] against Galium aparine” value in the assay with Galium aparine (Table 5-04, field, 210 g of a.i./ha) was 13%; in the assay with Galium aparine (Table 5-62, field, 210 g of a.i./ha) it was 13%; in the assay on Galium aparine (Table 5-92, field, 210 g of a.i./ha), 25%. The “Activity [%] against Polygunum convolvulus” value in the assay with Polygunum convolvulus turned out to be 30%. The “Activity [%] against Veronica hederifolia” value with Veronica hederifolia [3] (Table 5-66, field) worked out at 5%; in the assay on Veronica hederifolia [3] (Table 5-74, field), 5%; with Veronica hederifolia [3] (Table 5-76, field), 0%; with Veronica hederifolia [3] (Table 5-79, field), 5%. The “Activity [%] against Stellaria media” value in assay [4] (Table 5-114) was 10%; in [4] (Table 5-116), 5%.
In the case of `CCOC(=O)[C@@H](C)Oc1ccc(Oc2nc3ccc(Cl)cc3o2)cc1` [fenoxaprop-P-ethyl], the “Activity [%] against Avena fatua” value was determined as 0% in the assay with Avena fatua (Table 5-01, greenhouse, 25 g of a.i./ha); 0% in the assay on Avena fatua (Table 5-05, greenhouse, 12.5 g of a.i./ha); 0% in the assay with Avena fatua (Table 5-07, greenhouse, 12.5 g of a.i./ha); 0% in the assay on Avena fatua (Table 5-49, greenhouse, 25 g of a.i./ha). The “Activity [%] against Centaurea cyanis” value in the assay with Centaurea cyanis [5] (Table 5-50, greenhouse, 25 g of a.i./ha) is 0%. In addition, the “Activity [%] against Papaver rhoeas” value in the assay with Papaver rhoeas (Table 5-06, greenhouse, 12.5 g of a.i./ha) was found to be 20%. The “Activity [%] against Phalaris minor” value with Phalaris minor was 15%. Moreover, the “Activity [%] against Polygonum convolvulus” value with Polygonum convolvulus (Table 5-08, greenhouse, 25 g of a.i./ha) stood at 0%. In addition, the “Activity [%] against Viola tricolor” value is reported as 0% in the assay on Viola tricolor (Table 5-02, greenhouse, 25 g of a.i./ha) and 15% in the assay with Viola tricolor (Table 5-09, greenhouse, 12.5 g of a.i./ha). The “Activity [%] against Alopecurus myosuroides” value with Alopecurus myosuroides (83 g of a.i./ha) is given as 30%.
Consider `CC(C)N(C(=O)COc1nnc(C(F)(F)F)s1)c1ccc(F)cc1` [flufenacet], for which the “Activity [%] against Centaurea cyanis” value in the assay on Centaurea cyanis [1] (240 g of a.i./ha) amounted to 0%.
As for `CCc1cc(C)cc(CC)c1-c1c(OC(=O)C(C)(C)C)n2n(c1=O)CCOCC2` [pinoxaden], the “Activity [%] against Centaurea cyanis” value was 0% in the assay with Centaurea cyanis [5] (Table 5-38, greenhouse, 5 g of a.i./ha) and 15% in the assay with Centaurea cyanis [5] (Table 5-40, greenhouse, 5 g of a.i./ha). Further, the “Activity [%] against Papaver rhoeas” value with Papaver rhoeas (Table 5-39, greenhouse, 5 g of a.i./ha) is reported as 0%; in the assay on Papaver rhoeas (Table 5-41, greenhouse, 10 g of a.i./ha), 10%; with Papaver rhoeas (Table 5-86, greenhouse, 10 g of a.i./ha), 0%; in the assay on Papaver rhoeas (Table 5-87, greenhouse, 10 g of a.i./ha), 50%. Also, in the assay with Polygonum convolvulus (Table 5-88, greenhouse, 10 g of a.i./ha), the “Activity [%] against Polygonum convolvulus” value stood at 0%. Further, the “Activity [%] against Veronica hederifolia” value in the assay with Veronica hederifolia [2] (10 g of a.i./ha) is listed as 20%. Further, the “Activity [%] against Viola tricolor” value with Viola tricolor (Table 5-42, greenhouse, 10 g of a.i./ha) is reported as 0%.
